Source: US6723716B1, “7-acylamino-3-heteroarylthio-3-cephem carboxylic acid antibiotics and prodrugs thereof” (Essential Therapeutics, Inc., priority 1999, dated 2004)
Values after ≈ are worked out from the molar mass of the structure shown.

How the values were obtained:
S. aureus ATCC29213 = test: Human serum binding effect: MIC with and without human serum; type: cell-based, Staphylococcus aureus; settings: 1:1 human serum:MHB
Description: The approximate measurement of the degree of binding of the compound to human serum proteins can be achieved by determination of the effect of the addition of human serum to the medium in which the MIC values against a selected bacterial strain is determined. The ratio of the MIC value obtained in presence of added human serum to the MIC value determined without serum addition was used as a measure of serum binding and the results of such determination are presented below in Table 2.
In addition to the standard MIC determination described above, the staphylococcal strain ATCC29213 is also tested in a ratio 1:1, human serum:MHB to obtain a preliminary estimate of the bioactivity of test compounds in serum: The assay was performed in Human Serum and Mueller-Hinton Broth (HSMHB) with a final bacterial inoculum of 1×10^6 CFU/mL (from an early-log phase culture) and a final volume of 100 μL. Control drugs, including imipenem, vancomycin, dicloxacillin, and new compounds were prepared in double-concentrated Mueller-Hinton broth at a concentration equivalent to 4-fold the desired final concentration. Dilution of compounds were prepared directly in the plates by serial 2-fold dilution in double-concentrated Mueller-Hinton using a multichannel pipette. Positive and negative growth controls were included in each plate. […] The inoculum was prepared by diluting the early log-phase (1 h) culture 1:100 with fresh double-concentrated Mueller-Hinton broth. A volume of 25 μL of the inoculum was added to each well. […] The exact inoculum was determined by applying 10 μl of 10-fold serial dilution of the bacterial suspension on TSA. After overnight incubation at 35° C., colony forming units were manually counted.

[1] = tested on: S. haemolyticus 05 (Meth^R); test: Broth microdilution MIC (NCCLS); type: cell-based; settings: Staphylococcus haemolyticus
Description: (§1) Compounds were evaluated for antimicrobial activity against a panel of bacterial strains using a broth microdilution assay performed as recommended by the NCCLS (1). The minimum inhibitory concentration (MIC) was defined as the lowest concentration of drug which prevented the growth of the bacteria.
(§2) For this primary panel, the assay was performed in Mueller-Hinton Broth (MHB) with a final bacterial inoculum of 5×10^5 CFU/mL (from an early-log phase culture) and a final volume of 100 μL. Control drugs, including imipenem, vancomycin, Penicillin G, dicloxacillin (vs. MSSA ATCC29213 only), and new compounds were prepared at a concentration equivalent to 2-fold the desired final concentration. Dilution of compounds were prepared directly in the plates by serial 2-fold dilution using a multichannel pipette. Positive and negative growth control were included in each plate.
(§3) The bacterial inocula were prepared as follows. For each strain one isolated colony was used to inoculate a volume of 8 mL of Mueller-Hinton broth and these cultures were incubated overnight (20 h) at 35° C. in a shaking incubator. At the exception of Enterococcus strains, culture were then diluted 1:10 and allowed to grow for an additional one hour at 35° C. in a shaking incubator. The inocula were prepared by diluting the early log-phase (1 h) cultures 1:1000 with fresh Mueller-Hinton broth. E. faecium and E. faecalis were prepared by diluting overnight cultures 1:333 and 1:666, respectively, with fresh Mueller-Hinton broth. A volume of 50 μL of the inocula was added to each well. […] The exact inocula were determined by applying 10 μL of 10-fold serial dilution of the bacterial suspensions on TSA. After overnight incubation at 35° C., colony forming units were manually counted.
(§4) Microtiter plates were incubated during 24 h at 35° C. and were read using a microtiterplate reader (Molecular Devices) at 650 nm as well as by visual observation using a microtiterplate reading mirror.

E. coli ATCC25992 = test: Broth microdilution MIC (NCCLS); type: cell-based; settings: Escherichia coli
Description: as §1, §2, §3, §4

[2] = tested on: S. aureus PC1 (Meth^S)(lac^+); test: Broth microdilution MIC (NCCLS); type: cell-based; settings: Staphylococcus aureus
Description: as §1, §2, §3, §4

E. faecium A491 (Amp^R) = test: Broth microdilution MIC (NCCLS); type: cell-based; settings: Enterococcus faecium
Description: as §1, §2, §3, §4

E. faecium VanA (Van^R) = test: Broth microdilution MIC (NCCLS); type: cell-based; settings: Enterococcus faecium
Description: as §1, §2, §3, §4

[3] = tested on: S. aureus ATCC 13709 (Meth^S); test: Broth microdilution MIC (NCCLS); type: cell-based; settings: Staphylococcus aureus, ATCC13709, S. aureus ATCC 13709 (Meth^S); read-out: MIC
Description: as §1, §2, §3, §4

E. faecium ATCC 35667 = test: Broth microdilution MIC (NCCLS); type: cell-based; settings: Enterococcus faecium, ATCC35667
Description: as §1, §2, §3, §4

[4] = tested on: S. aureus 76 (Meth^R)(lac^+); test: Broth microdilution MIC (NCCLS); type: cell-based; settings: Staphylococcus aureus
Description: as §1, §2, §3, §4

E. faecalis ATCC 29212 = test: Broth microdilution MIC (NCCLS); type: cell-based; settings: Enterococcus faecalis, ATCC29212
Description: as §1, §2, §3, §4

S. aureus ATCC 29213 = test: Broth microdilution MIC (NCCLS); type: cell-based; settings: Staphylococcus aureus, ATCC29213; S. aureus ATCC 29213; Mueller-Hinton broth, 24 h at 35° C.; read-out: MIC
Description: as §1, §2, §3, §4

E. faecalis VanB (Van^R) = test: Broth microdilution MIC (NCCLS); type: cell-based; settings: Enterococcus faecalis
Description: as §1, §2, §3, §4

[5] = tested on: S. aureus ATCC 33593 (Meth^R); test: Broth microdilution MIC (NCCLS); type: cell-based; settings: Staphylococcus aureus, ATCC33593
Description: as §1, §2, §3, §4

P. aeruginosa ATCC 27853 = test: Broth microdilution MIC (NCCLS); type: cell-based; settings: Pseudomonas aeruginosa, ATCC27853
Description: as §1, §2, §3, §4

[6] = tested on: S. aureus Col (Meth^R)(lac^−); test: Broth microdilution MIC (NCCLS); type: cell-based; settings: Staphylococcus aureus
Description: as §1, §2, §3, §4

[7] = tested on: S. aureus Spain #356 (Meth^R); test: Broth microdilution MIC (NCCLS); type: cell-based; settings: Staphylococcus aureus, 24 h
Description: as §1, §2, §3, §4

SMILES: NCCSc1nccc(SC2=C(C(=O)O)N3C(=O)[C@@H](NC(=O)/C(=N\O)c4cccc(N)n4)[C@H]3SC2)n1 [Cmpd 8, (7R)-7-[(Z)-2-(2-aminopyrid-6-yl)-2-(hydroxyimino)acetamido]-3-[2-(2-aminoethylthio)-pyrimidin-4-ylthio]-3-cephem-4-carboxylic acid]
- Human serum binding effect (ratio of MIC value determined with and without human serum added) (S. aureus ATCC29213): 128
- MIC [1]: 32 µg/mL (≈ 58.3 µM)
- MIC (E. coli ATCC25992): 16 µg/mL (≈ 29.2 µM)
- MIC [2]: 1 µg/mL (≈ 1.82 µM)
- MIC (E. faecium A491 (Amp^R)): > 32 µg/mL
- MIC (E. faecium VanA (Van^R)): 32 µg/mL (≈ 58.3 µM)
- MIC [3]: 0.5 µg/mL (≈ 0.911 µM)
- MIC (E. faecium ATCC 35667): 16 µg/mL (≈ 29.2 µM)
- MIC [4]: 16 µg/mL (≈ 29.2 µM)
- MIC (E. faecalis ATCC 29212): 8 µg/mL (≈ 14.6 µM)
- MIC (S. aureus ATCC 29213): 1 µg/mL (≈ 1.82 µM)
- MIC (E. faecalis VanB (Van^R)): 16 µg/mL (≈ 29.2 µM)
- MIC [5]: 8 µg/mL (≈ 14.6 µM)
- MIC (P. aeruginosa ATCC 27853): > 32 µg/mL
- MIC [6]: 16 µg/mL (≈ 29.2 µM)
- MIC [7]: 16 µg/mL (≈ 29.2 µM)

SMILES: N=C(N)NCCSCc1nc(N)sc1SC1=C(C(=O)O)N2C(=O)[C@@H](NC(=O)/C(=N\O)c3nc(N)sc3Cl)[C@H]2SC1 [Cmpd 26, (7R)-7-[(Z)-2-(2-amino-5-chlorothiazol-4-yl)-2-(hydroxyimino)acetamido]-3-[4-(2-guanidinoethylthiomethyl)-2-amino-1,3-thiazol-5-ylthio]-3-cephem-4-carboxylic acid]
- Human serum binding effect (ratio of MIC value determined with and without human serum added) (S. aureus ATCC29213): 2
- MIC [1]: 0.5 µg/mL (≈ 0.752 µM)
- MIC (E. coli ATCC25992): 4 µg/mL (≈ 6.01 µM)
- MIC [2]: 0.06 µg/mL (≈ 0.0902 µM)
- MIC (E. faecium A491 (Amp^R)): 16 µg/mL (≈ 24.1 µM)
- MIC (E. faecium VanA (Van^R)): 1 µg/mL (≈ 1.5 µM)
- MIC [3]: 0.06 µg/mL (≈ 0.0902 µM)
- MIC (E. faecium ATCC 35667): 0.5 µg/mL (≈ 0.752 µM)
- MIC [4]: 0.5 µg/mL (≈ 0.752 µM)
- MIC (E. faecalis ATCC 29212): 0.06 µg/mL (≈ 0.0902 µM)
- MIC (S. aureus ATCC 29213): 0.06 µg/mL (≈ 0.0902 µM)
- MIC (E. faecalis VanB (Van^R)): 0.06 µg/mL (≈ 0.0902 µM)
- MIC [5]: 0.5 µg/mL (≈ 0.752 µM)
- MIC (P. aeruginosa ATCC 27853): 4 µg/mL (≈ 6.01 µM)
- MIC [6]: 0.25 µg/mL (≈ 0.376 µM)
- MIC [7]: 0.5 µg/mL (≈ 0.752 µM)

SMILES: COc1nc(CSCCN)c(SC2=C(C(=O)O)N3C(=O)[C@@H](NC(=O)/C(=N\O)c4cccc(N)n4)[C@H]3SC2)s1 [Cmpd 5, (7R)-7-[(Z)-2-(2-aminopyrid-6-yl)-2-(hydroxyimino)acetamido]-3-[4-(2-aminoethylthiomethyl)-2-methoxy-1,3-thiazol-5-ylthio]-3-cephem-4-carboxylic acid]
- Human serum binding effect (ratio of MIC value determined with and without human serum added) (S. aureus ATCC29213): 4
- MIC [1]: 8 µg/mL (≈ 13.4 µM)
- MIC (E. coli ATCC25992): 32 µg/mL (≈ 53.5 µM)
- MIC [2]: 0.25 µg/mL (≈ 0.418 µM)
- MIC (E. faecium A491 (Amp^R)): > 32 µg/mL
- MIC (E. faecium VanA (Van^R)): 4 µg/mL (≈ 6.69 µM)
- MIC [3]: 0.13 µg/mL (≈ 0.217 µM)
- MIC (E. faecium ATCC 35667): 4 µg/mL (≈ 6.69 µM)
- MIC [4]: 4 µg/mL (≈ 6.69 µM)
- MIC (E. faecalis ATCC 29212): 0.5 µg/mL (≈ 0.837 µM)
- MIC (S. aureus ATCC 29213): 0.25 µg/mL (≈ 0.418 µM)
- MIC (E. faecalis VanB (Van^R)): 1 µg/mL (≈ 1.67 µM)
- MIC [5]: 4 µg/mL (≈ 6.69 µM)
- MIC (P. aeruginosa ATCC 27853): > 32 µg/mL
- MIC [6]: 4 µg/mL (≈ 6.69 µM)
- MIC [7]: 4 µg/mL (≈ 6.69 µM)

SMILES: NCCSc1cncc(SC2=C(C(=O)O)N3C(=O)C(NC(=O)/C(=N\O)c4cccc(N)n4)C3SC2)n1 (stereo not shown) [Cmpd 6]
- Human serum binding effect (ratio of MIC value determined with and without human serum added) (S. aureus ATCC29213): 128
- MIC [1]: 32 µg/mL (≈ 58.3 µM)
- MIC (E. coli ATCC25992): 16 µg/mL (≈ 29.2 µM)
- MIC [2]: 0.5 µg/mL (≈ 0.911 µM)
- MIC (E. faecium A491 (Amp^R)): > 32 µg/mL
- MIC (E. faecium VanA (Van^R)): 8 µg/mL (≈ 14.6 µM)
- MIC [3]: 0.25 µg/mL (≈ 0.456 µM)
- MIC (E. faecium ATCC 35667): 8 µg/mL (≈ 14.6 µM)
- MIC [4]: 16 µg/mL (≈ 29.2 µM)
- MIC (E. faecalis ATCC 29212): 2 µg/mL (≈ 3.65 µM)
- MIC (S. aureus ATCC 29213): 0.5 µg/mL (≈ 0.911 µM)
- MIC (E. faecalis VanB (Van^R)): 4 µg/mL (≈ 7.29 µM)
- MIC [5]: 8 µg/mL (≈ 14.6 µM)
- MIC (P. aeruginosa ATCC 27853): > 32 µg/mL
- MIC [6]: 16 µg/mL (≈ 29.2 µM)
- MIC [7]: 16 µg/mL (≈ 29.2 µM)
